Columns and labels:
[1] = tested on: endogenous NAMPT in U2OS cells; experiment: Cellular NAD+ modulation assay (NAD/NADH-Glo, U2OS cells); assay type: cell-based; conditions: Homo sapiens, 24 hours incubation, cellular NAD+; for maximal fold induction: read-out: Cellular Emax
Procedure, shortened: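 Endogenous NAMPT stimulation in U2OS cells treated with compound dilution series for 24 h at 37 °C. Cells lysed with DTAB base, acid-treated 15 min at 60 °C, neutralized, NAD+ read by NAD/NADH-Glo luminescence after 40 min at room temperature. EC50 and Emax (fold over DMSO) derived.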

[2] = biological target: T1, human enzyme NAMPT (full length) (Homo sapiens, UniProt P43490); experiment: NMN fluorescence biochemical assay (stimulation of NMN synthesis by NAMPT); conditions: for EC50: NMN fluorescence assay, purified human NAMPT 100 nM, concentration giving half-maximal activation, read-out: Enzymatic EC50; for Enzymatic Emax: fold change of maximal activation compared to DMSO
T1 construct: human enzyme NAMPT (full length)
T1 sequence (P43490 whole entry): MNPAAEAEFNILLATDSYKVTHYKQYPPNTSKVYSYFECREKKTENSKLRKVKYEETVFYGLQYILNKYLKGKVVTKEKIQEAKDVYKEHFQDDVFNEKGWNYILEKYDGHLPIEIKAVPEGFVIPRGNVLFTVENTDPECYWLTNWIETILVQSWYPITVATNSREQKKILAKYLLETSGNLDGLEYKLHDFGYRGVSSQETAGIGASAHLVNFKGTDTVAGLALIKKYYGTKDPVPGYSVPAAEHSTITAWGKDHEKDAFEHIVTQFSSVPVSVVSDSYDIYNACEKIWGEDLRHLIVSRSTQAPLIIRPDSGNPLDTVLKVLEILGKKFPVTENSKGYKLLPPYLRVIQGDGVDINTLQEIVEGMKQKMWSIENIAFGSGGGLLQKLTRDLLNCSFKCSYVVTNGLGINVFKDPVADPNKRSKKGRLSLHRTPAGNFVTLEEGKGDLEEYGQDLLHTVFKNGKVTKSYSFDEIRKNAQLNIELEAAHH
Procedure, shortened: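 Full-length human NAMPT (100 nM) was preincubated 15 min at 37 °C with compound in 50 mM Tris-HCl pH 7.5, 10 mM MgCl2, 2 mM DTT, then reacted 1 h at 37 °C with 50 μM NAM, 100 μM PRPP, 4 mM ATP (stated solution concentrations). NMN was derivatised with acetophenone/KOH then formic acid and read at Ex/Em 382/445 nm; EC50 and Emax (fold over DMSO) reported.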

| SMILES | EC50 [1] [µM] | maximal fold induction [1] | EC50 [2] [µM] | Enzymatic Emax [2] |
| --- | --- | --- | --- | --- |
| COc1ccc(CN2C(=O)c3c(F)cc(Cl)cc3C2Cc2c(Cl)cnn2C)cc1 (centres unmarked) [Compound 581, 5-chloro-3-((4-chloro-1-methyl-1H-pyrazol-5-yl)methyl)-7-fluoro-2-(4-methoxybenzyl)isoindolin-1-one] | 0.5 to 5 | 1.2 to 1.5 | 0.5 to 5 | A (A>3) |
| Cn1ncc(Cl)c1CC1c2ccccc2C(=O)N1CC1CC1C(N)=O (centres unmarked) [Compound 582, 2-((1-((4-chloro-1-methyl-1H-pyrazol-5-yl)methyl)-3-oxoisoindolin-2-yl)methyl)cyclopropane-1-carboxamide] | 5 to 50 | 1.2 to 1.5 | ≥ 5 | C (2≥C) |
| [2H]C([2H])([2H])Oc1ccc(CN2C(=O)c3ccccc3C2Cc2c(C)ccnc2C#N)cc1 (centres unmarked) [Compound 583, 3-((2-(4-(methoxy-d3)benzyl)-3-oxoisoindolin-1-yl)methyl)-4-methylpicolinonitrile] | < 0.5 | > 1.5 | 0.5 to 5 | A (A>3) |
| Cn1ncc(Cl)c1CC1c2ccccc2C(=O)N1Cc1ccc2c(c1)ncn2C (centres unmarked) [Compound 585, 3-((4-chloro-1-methyl-1H-pyrazol-5-yl)methyl)-2-((1-methyl-1H-benzo[d]imidazol-5-yl)methyl)isoindolin-1-one] | 0.5 to 5 | > 1.5 | 0.5 to 5 | B (3≥B>2) |
| COc1ccc(CN2C(=O)c3ccccc3C2Cc2c(C)ccnc2C#N)cn1 (centres unmarked) [Compound 588, 3-((2-((6-methoxypyridin-3-yl)methyl)-3-oxoisoindolin-1-yl)methyl)-4-methylpicolinonitrile] | 0.5 to 5 | > 1.5 | ≥ 5 | B (3≥B>2) |
| COc1ccc(CN2C(=O)c3ccccc3C2Cc2c(Cl)ccc(=O)n2C)cc1 (centres unmarked) [Compound 589, 3-((3-chloro-1-methyl-6-oxo-1,6-dihydropyridin-2-yl)methyl)-2-(4-methoxybenzyl)isoindolin-1-one] | < 0.5 | > 1.5 | 0.5 to 5 | A (A>3) |
| COc1ccc(CN2C(=O)c3ccccc3C2Cc2c(C#N)ccnc2C#N)cc1 (centres unmarked) [Compound 590, 3-((2-(4-methoxybenzyl)-3-oxoisoindolin-1-yl)methyl)pyridine-2,4-dicarbonitrile] | 0.5 to 5 | 1.2 to 1.5 | 0.5 to 5 | B (3≥B>2) |
| COc1ncc(CN2C(=O)c3ccccc3C2Cc2c(Cl)cnn2C)s1 (centres unmarked) [Compound 591, 3-((4-chloro-1-methyl-1H-pyrazol-5-yl)methyl)-2-((2-methoxythiazol-5-yl)methyl)isoindolin-1-one] | 0.5 to 5 | 1.2 to 1.5 | ≥ 5 | B (3≥B>2) |
| Cn1ncc(Cl)c1CC1c2ccccc2C(=O)N1Cc1c[nH]c(=O)s1 (centres unmarked) [Compound 592, 5-((1-((4-chloro-1-methyl-1H-pyrazol-5-yl)methyl)-3-oxoisoindolin-2-yl)methyl)thiazol-2(3H)-one] | < 0.5 | > 1.5 | < 0.5 | A (A>3) |
| COc1cc(CN2C(=O)c3ccccc3C2Cc2c(Cl)cnn2C)on1 (centres unmarked) [Compound 593, 3-((4-chloro-1-methyl-1H-pyrazol-5-yl)methyl)-2-((3-methoxyisoxazol-5-yl)methyl)isoindolin-1-one] | 0.5 to 5 | 1.2 to 1.5 | ≥ 5 | B (3≥B>2) |
| Cc1noc2cc(CN3C(=O)c4ccccc4C3Cc3c(Cl)cnn3C)ccc12 (centres unmarked) [Compound 594, 3-((4-chloro-1-methyl-1H-pyrazol-5-yl)methyl)-2-((3-methylbenzo[d]isoxazol-6-yl)methyl)isoindolin-1-one] | < 0.5 | 1.2 to 1.5 | ≥ 5 | B (3≥B>2) |
| COc1ccc(CN2C(=O)c3ccccc3C2Cc2c(C)ncnc2C#N)cn1 (centres unmarked) [Compound 595, 5-((2-((6-methoxypyridin-3-yl)methyl)-3-oxoisoindolin-1-yl)methyl)-6-methylpyrimidine-4-carbonitrile] | 0.5 to 5 | > 1.5 | 0.5 to 5 | B (3≥B>2) |
| COc1ccc(CN2C(=O)c3c(F)cc(Cl)cc3C2Cc2c(C)ccnc2C#N)cn1 (centres unmarked) [Compound 596, 3-((6-chloro-4-fluoro-2-((6-methoxypyridin-3-yl)methyl)-3-oxoisoindolin-1-yl)methyl)-4-methylpicolinonitrile] | 0.5 to 5 | > 1.5 | 0.5 to 5 | B (3≥B>2) |
| COc1ccc(CN2C(=O)c3ccccc3C2Cc2c(C)ncnc2C#N)cc1 (centres unmarked) [Compound 597, 5-((2-(4-methoxybenzyl)-3-oxoisoindolin-1-yl)methyl)-6-methylpyrimidine-4-carbonitrile] | < 0.5 | > 1.5 | 0.5 to 5 | B (3≥B>2) |
| COc1ccc(CN2C(=O)c3ccccc3C2Cc2c(C#N)ccnc2C#N)cn1 (centres unmarked) [Compound 598, 3-((2-((6-methoxypyridin-3-yl)methyl)-3-oxoisoindolin-1-yl)methyl)pyridine-2,4-dicarbonitrile] | 0.5 to 5 | > 1.5 | 0.5 to 5 | B (3≥B>2) |
| COC1CC2(CC(CN3C(=O)c4ccccc4C3Cc3c(Cl)cnn3C)C2)C1 (centres unmarked) [Compound 599, 3-((4-chloro-1-methyl-1H-pyrazol-5-yl)methyl)-2-((6-methoxyspiro[3.3]heptan-2-yl)methyl)isoindolin-1-one] | 0.5 to 5 | 1.2 to 1.5 | ≥ 5 | C (2≥C) |
| Cn1ncc(Cl)c1CC1c2ccccc2C(=O)N1Cc1ccc2nonc2c1 (centres unmarked) [Compound 600, 2-(benzo[c][1,2,5]oxadiazol-5-ylmethyl)-3-((4-chloro-1-methyl-IH-pyrazol-5-yl)methyl)isoindolin-1-one] | 5 to 50 | ≤ 1.2 | ≥ 5 | C (2≥C) |
| Cn1ncc(Cl)c1CC1c2ccccc2C(=O)N1C/C(F)=C/c1nn[nH]c1F (centres unmarked) [Compound 601, (Z)-3-((4-chloro-1-methyl-1H-pyrazol-5-yl)methyl)-2-(2-fluoro-3-(5-fluoro-1H-1,2,3-triazol-4-yl)allyl)isoindolin-1-one] | < 0.5 | 1.2 to 1.5 | 0.5 to 5 | A (A>3) |
| Cn1ncc(Cl)c1CC1c2ccccc2C(=O)N1Cc1cc(=O)[nH]o1 (centres unmarked) [Compound 602, 5-((1-((4-chloro-1-methyl-1H-pyrazol-5-yl)methyl)-3-oxoisoindolin-2-yl)methyl)isoxazol-3(2H)-one] | 0.5 to 5 | > 1.5 | ≥ 5 | B (3≥B>2) |
| COc1ncc(CN2C(=O)c3ccccc3C2Cc2c(Cl)cnn2C)o1 (centres unmarked) [Compound 603, 3-((4-chloro-1-methyl-1H-pyrazol-5-yl)methyl)-2-((2-methoxyoxazol-5-yl)methyl)isoindolin-1-one] | 0.5 to 5 | 1.2 to 1.5 | ≥ 5 | C (2≥C) |

— patent US20260078130A1, “NAMPT MODULATORS, PREPARATIONS, AND USES THEREOF” (SIRONAX LTD., priority 2022, published 2026)
